PMC11002876, “KcsA-Kv1.x chimeras with complete ligand-binding sites provide improved predictivity for screening selective Kv1.x blockers” (The Journal of Biological Chemistry, 2024)
Where a SMILES comes first, the peptide text is derived from it.

Test system: human Kv1.2 channel (hKv1.2)
Assay: Whole-cell patch-clamp, hKv1.2-expressing CHO cells
Assay type: cell-based
Settings: see Table 1 and Fig. S2; 10 nM peptide in patch-clamp
Description: Chinese Hamster Ovarian cells were grown in Dulbecco’s modified Eagle’s medium–high glucose supplemented with 10% FBS, 2 mM L-glutamine, 100 U/ml penicillin-g, and 100 μg/ml streptomycin (Invitrogen) at 37 °C in a 5% CO2 and 95% air humidified atmosphere. Cells were passaged twice per week following a 5 min incubation in PBS containing 0.2 g/L EDTA. Chinese Hamster Ovarian cells were transiently transfected with plasmids encoding human Kv1.1 (hKCNA1 gene) and human Kv1.2 (hKCNA2 gene) in pCMV6-AC-GFP plasmid (RG211000 and RC222200, OriGene Technologies) using Lipofectamine 2000 (Invitrogen) following the manufacturer’s protocol, then cultured under standard conditions. Transfected cells were washed twice with 2 ml of extracellular solution (ECS, see below) and replated onto 35 mm polystyrene cell culture dishes (Cellstar, Greiner Bio-One) before the patch-clamp experiments. […] In general, currents were recorded 24 to 36 h after transfection.
Conventional whole-cell patch-clamp electrophysiology was used to record ionic currents. Micropipettes were pulled from GC150F-7.5 borosilicate capillaries (Harvard Apparatus) with tip diameters between 0.5 and 1 μm resulting in a tip resistance of 2 to 8 MΩ in the extracellular (bath) solution. […]
Native peptides, phage-expressed peptides, and positive controls used for them were dissolved in ECS supplemented with 0.1 mg/ml bovine serum albumin (BSA; Sigma-Aldrich Hungary). Bath perfusion around the measured cell with different extracellular solutions was achieved using a gravity flow micro perfusion system using a rate of 0.5 ml/min. […]
Voltage protocols: For measurement of Kv1.1 to 1.3 currents, voltage steps to +50 mV were applied from a holding potential of −120 mV and the peak current was measured every 15 s. […] The remaining current fraction at a given molar concentration was calculated as I/I0, where I0 is the peak current in the absence and I is the peak current at equilibrium block or […] after ∼2 min perfusion by the investigated peptide/phage.

SMILES: CC[C@H](C)[C@@H]1NC(=O)[C@@H]2CSSC[C@H](NC(=O)[C@H](CO)NC(=O)[C@@H](N)C(C)C)C(=O)N[C@@H]([C@@H](C)O)C(=O)NCC(=O)N[C@@H](CO)C(=O)N[C@@H](CCCCN)C(=O)N[C@@H](CC(=O)O)C(=O)N[C@@H](CSSC[C@@H](C(=O)N[C@@H](CCCCN)C(=O)N[C@H]3CSSC[C@@H](C(N)=O)NC(=O)CNC(=O)[C@H](Cc4ccc(O)cc4)NC3=O)NC(=O)[C@H](CO)NC(=O)[C@H](CCCCN)NC(=O)[C@H](CC(N)=O)NC1=O)C(=O)N[C@@H](Cc1ccc(O)cc1)C(=O)N[C@@H](C)C(=O)N1CCC[C@H]1C(=O)N[C@H]1CSSC[C@H](NC(=O)CNC(=O)[C@H]([C@@H](C)O)NC(=O)[C@H](CCC(N)=O)NC(=O)[C@H](CCCCN)NC(=O)[C@H](CCCNC(=N)N)NC1=O)C(=O)N1CCC[C@H]1C(=O)N[C@@H](CC(N)=O)C(=O)N[C@@H](C)C(=O)N[C@@H](CCCCN)C(=O)N2 [MTX, Maurotoxin] (HELM PEPTIDE1{V.S.C.T.G.S.K.D.C.Y.A.P.C.R.K.Q.T.G.C.P.N.A.K.C.I.N.K.S.C.K.C.Y.G.C.[am]}$PEPTIDE1,PEPTIDE1,3:R3-24:R3|PEPTIDE1,PEPTIDE1,9:R3-29:R3|PEPTIDE1,PEPTIDE1,13:R3-19:R3|PEPTIDE1,PEPTIDE1,31:R3-34:R3$$$V2.0; N-terminus and C-terminus assumed)
- potency ranking, Kv1.2: MTX > ShK >> KTX1

SMILES: CC[C@H](C)[C@H](NC(=O)[C@H](CCC(=O)O)NC(=O)[C@@H](NC(=O)CN)C(C)C)C(=O)N[C@@H](CC(N)=O)C(=O)N[C@H](C(=O)N[C@@H](CCCCN)C(=O)N[C@H]1CSSC[C@@H]2NC(=O)[C@H](CCCCN)NC(=O)CNC(=O)[C@H](Cc3ccccc3)NC(=O)[C@H](CCCNC(=N)N)NC(=O)[C@H](CCSC)NC(=O)CNC(=O)[C@H](C)NC(=O)[C@H](CC(=O)O)NC(=O)[C@H](CCCCN)NC(=O)[C@@H]3CSSC[C@@H](C(=O)N[C@H](C(=O)N4CCC[C@H]4C(=O)N[C@@H](CCCCN)C(=O)O)[C@@H](C)O)NC(=O)[C@H](Cc4c[nH]cn4)NC(=O)[C@H](CSSC[C@H](NC(=O)[C@H](CCC(N)=O)NC(=O)[C@@H]4CCCN4C(=O)[C@H](CO)NC(=O)CNC(=O)[C@H](CO)NC1=O)C(=O)N[C@@H](CC(C)C)C(=O)N[C@@H](CCCCN)C(=O)N1CCC[C@H]1C(=O)N3)NC(=O)[C@H](CCCCN)NC(=O)[C@H](CCCNC(=N)N)NC(=O)[C@H](CC(N)=O)NC(=O)[C@H](CCSC)NC2=O)C(C)C [KTX1, Kaliotoxin-1]
- potency ranking, Kv1.2: MTX > ShK >> KTX1

SMILES: CC[C@H](C)[C@@H]1NC(=O)[C@@H](NC(=O)[C@H](CO)NC(=O)[C@@H](N)CCCNC(=N)N)CSSC[C@@H](C(=O)O)NC(=O)[C@H]([C@@H](C)O)NC(=O)CNC(=O)[C@@H]2CSSC[C@@H]3NC(=O)[C@H](CCC(N)=O)NC(=O)[C@H](Cc4ccccc4)NC(=O)[C@H](C)NC(=O)[C@H]([C@@H](C)O)NC(=O)[C@H](CSSC[C@H](NC(=O)[C@H](Cc4ccccc4)NC(=O)[C@H](CO)NC(=O)[C@H](CC(C)C)NC(=O)[C@H](CCCNC(=N)N)NC(=O)[C@H](Cc4ccc(O)cc4)NC(=O)[C@H](CCCCN)NC(=O)[C@H](CCSC)NC(=O)[C@H](CO)NC(=O)[C@H](Cc4c[nH]cn4)NC(=O)[C@H](CCCCN)NC3=O)C(=O)N[C@@H](CCCNC(=N)N)C(=O)N[C@@H](CCCCN)C(=O)N[C@@H]([C@@H](C)O)C(=O)N2)NC(=O)[C@H](CCCNC(=N)N)NC(=O)[C@H](CO)NC(=O)[C@H](CCCCN)NC(=O)[C@@H]2CCCN2C(=O)[C@H]([C@@H](C)CC)NC(=O)[C@H]([C@@H](C)O)NC(=O)[C@H](CC(=O)O)NC1=O [ShK, Stichodactyla toxin]
- potency ranking, Kv1.2: MTX > ShK >> KTX1
